Reference: patent US20070111258A1, “Compositions and methods for modulating the acute phase response” (priority 2005, published 2007)

Tests used:
[1] = test system: CREBH; test: Cleavage of flag-tagged CREBH in transfected wild-type CHO cells (nuclear fraction Western blot); assay type: cell-based, Chinese hamster; conditions: Tm 5 μg/ml 10 hours
Procedure: FIG. 5 depicts the cleavage of CREBH by proteases S1P and S2P upon ER stress. (A) CREBH is cleaved by S1P-KDEL, but not S1P-KDAS. COS7 cells were co-transfected with a construct expressing flag-tagged full-length CREBH and a construct expressing S1P-KDAS or S1P-KDEL. CREBH construct DNA (1 μg) was mixed with S1P-KDEL or S1P-KDAS construct DNA (1 or 2 μg as indicated) for transfection of cells in one well of a 6-well plate. COS7 cells expressing full-length CREBH were also cultured in the absence or presence of 0.5 μM BFA for 8 hours. COS7 cells expressing CREBH-ΔC, the cytosolic/nuclear form of CREBH, were included as a positive control. Expression and cleavage of CREBH were detected by Western blot analysis using an anti-flag antibody. (B) Cleavage of CREBH in wild-type (K1), S2P-deficient (M19), and […] CHO cells. […]
For analysis of expression and cleavage of CREBH protein, total cell lysates were prepared from H2.35 cells or COS7 cells using Nonidet P-40 lysis buffer (1% NP-40, 50 mM Tris-HCl at pH 7.5, 150 mM NaCl, 0.05% SDS) supplemented with protease inhibitors (Complete Mini from Roche Applied Science), 0.1 mM sodium vanadate, and 1 mM sodium fluoride. […] The total cell lysate, membrane and nuclear fractions were subjected to SDS-PAGE and then analyzed by Western blot using anti-flag monoclonal antibody or other antibodies. […]

[2] = test system: BiP, CHOP, EDEM, spliced XBP1, SAP and CRP mRNAs; test: UPR and APR mRNA induction in mouse liver after injection (quantitative real-time RT-PCR); assay type: in vivo; conditions: intraperitoneal injection of Tm 2 mg/kg; 24 hours
Procedure: Levels of spliced XBP1 mRNA were determined by quantitative real-time RT-PCR (lower panel). […] (B) Induction of CRP, SAP, BiP and spliced XBP1 mRNAs in mice injected with Tm. C57BU6J mice at 3-months of age were injected intraperitoneally with Tm (2 mg/kg body weight) in 150 mM dextrose solution. Mice were injected with the same volume of dextrose solution as a control. Liver tissues were collected from mice at 24 hours after injection for RNA isolation. (C-E) Induction of the BiP, CHOP, EDEM, spliced XBP1, SAP and CRP mRNAs in mice challenged with IL6, IL1β, LPS or Tm. Wild-type C57B1/6J mice at 3-months of age were intraperitoneally injected with recombinant murine IL6 (25 ng/gram body weight), recombinant murine IL1β (25 ng/gram body weight), LPS (3 μg/gram body weight) or Tm (2 μg/gram body weight). Mice were injected with the same volume of NaCL (for panels C and D) or dextrose (for panels E) solution as controls. At 24 hours after injection, liver samples were collected for isolating total RNA. Quantitative real-time RT-PCR was used to determine the mRNA levels. Fold changes of mRNA induction were determined after normalization of the mRNA levels to internal control 18S ribosomal RNA levels. Each bar denotes the mean±S.D., n=5 mice per injection.
Quantitative real-time RT-PCR was performed as previously described (Back et al., 2005). Briefly, total cellular RNA prepared was reverse-transcribed to cDNA using a random primer (Applied Biosystems). The reaction mixture, containing SYBR Green PCR Master Mix (Applied Biosystems), was run in a 7900HT Fast Real-Time PCR System (Applied Biosystems). Real-time PCR primer sequences for quantification of murine XBP1 mRNA splicing are: the forward primer 5′-[sequence]-3′, and the reverse primer 5′-[sequence]-3′. Other primer sequences were designed by Primer Express (Applied Biosystems).

[3] = test system: CRP and SAP mRNA; test: CRP and SAP mRNA in mouse primary hepatocytes (Northern blot); assay type: cell-based; conditions: Tm 5 μg/ml 2, 4, 6, 8 hours
Procedure: Primary hepatocytes were isolated from fetal livers of C57BL/6J mice at embryonic stage E18, and were then treated with Tm (5 μg/ml) for 2, 4, 6, and 8 hours. Total RNA was isolated and subjected to Northern blot analysis to determine levels of CRP, SAP and BiP mRNAs (upper panel). Levels of spliced XBP1 mRNA were determined by quantitative real-time RT-PCR (lower panel). For panels A-B, experiments were performed at least 3 times and representative data are shown. […] Quantitative real-time RT-PCR was used to determine the mRNA levels.
Primary hepatocytes were isolated from fetal livers of C57BL/6J mice at embryonic stage E18 as previously described (Mackey and Darlington, 2004).

[4] = test system: CREBH; test: Endogenous CREBH cleavage in mouse liver (Western blot); assay type: in vivo; conditions: wild-type mice; 24 hours after i.p. injection
Procedure: (F-G) Expression of endogenous CREBH protein in the livers of wild-type (F) and CREBH knockdown (G) mice challenged with IL6 plus IL1β, LPS or Tm. Wild-type or CREBH knockdown mice of 3-month old were intraperitoneally injected with IL6 (25 ng/gram body weight) plus IL1β (25 ng/gram body weight), LPS (3 μg/gram body weight) or Tm (2 μg/gram body weight). Mice were injected with the same volume of NaCL solution as controls. Liver protein extracts were prepared at 24 hours after injection. Western blot analysis was performed by using a polyclonal anti-mouse CREBH antibody. The blots were reprobed with anti-α-actin antibody for loading controls.

## tunicamycin [Tm]
[1]
  increase of the nuclear form of CREBH: approximately 6 fold
[2]
  expression of APR genes and UPR genes in the livers of mice: induced expression of both the APR genes and the UPR genes
[3]
  expression of the CRP and SAP mRNA: increased expression of the CRP and SAP mRNA in a time-dependent manner
[4]
  cleaved form of CREBH in the livers: cleaved form of CREBH was increased
